The subject of assay [1] is HCV genotype 1a (H77 strain) replicon in HUH-7 cells. Description: HCV replicon luciferase reporter assay, genotype 1a. Type of assay: cell-based. As to conditions: Hepatitis C virus, Huh-7, 72 h, HCV genotype 1a replicon luciferase, 3 days incubation. An outline of the steps:
(§1)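 Replicon inhibition for both genotypes was measured as Renilla luciferase signal (EnduRen, 7.5 μM final, 2 h) after 3-day, 37° C exposure of replicon-bearing HUH-7 cells in 4% FCS DMEM, 0.5% DMSO. The 1b construct carries S1179I; the 1a H77 construct carries P1496L and S2204I. Twenty-point, 3-fold dilutions were fitted four-parametrically for EC50, and CC50 was taken from multiplexed Cell Titer-Blue.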

The subject of assay [2] is HCV genotype 1b (Con1) replicon in HUH-7 cells. The assay can be described thus: HCV replicon luciferase reporter assay, genotype 1b. Type of assay: cell-based. The conditions noted are these: Hepatitis C virus, Huh-7, 72 h, HCV genotype 1b replicon luciferase, 3 days incubation. An outline of the steps: as §1

From US9499550B2 (BRISTOL-MYERS SQUIBB COMPANY, priority 2012, dated 2016) come the findings set out here.

Read-outs that look alike come from different tables or passages of the source. Some results are limits rather than exact numbers.

Take `CCn1nc(O[C@@H]2C[C@H]3C(=O)N[C@]4(C(=O)NS(=O)(=O)C5CC5)C[C@H]4/C=C\CC[C@H](C)C[C@@H](C)[C@H](NC(=O)c4ccc(N(C)C)cc4)C(=O)N3C2)c2ccccc2c1=O` [Compound 5073, (2R,6S,7R,9S,13aS,14aR,16aS,Z)—N-(cyclopropylsulfonyl)-6-(4-(dimethylamino)benzamido)-2-((3-ethyl-4-oxo-3,4-dihydrophthalazin-1-yl)oxy)-7,9-dimethyl-5,16-dioxo-1,2,3,5,6,7,8,9,10,11,13a,14,14a,15,16,16a-hexadecahydrocyclopropa[e]pyrrolo[1,2-a][1,4]diazacyclopentadecine-14a-carboxamide]: the EC50 is above 0.0874 µM in assay [1] (read-out: LE_1a (EC50, range)) and above 0.0874 µM in assay [2] (read-out: LE_1b (EC50, range)).

As to `CCn1nc(O[C@@H]2C[C@H]3C(=O)N[C@]4(C(=O)NS(=O)(=O)C5CC5)C[C@H]4/C=C\CC[C@@H](C)C[C@@H](C)[C@H](NC(=O)c4ccc(N(C)C)cc4)C(=O)N3C2)c2ccccc2c1=O` [Compound 5074, (2R,6S,7R,9R,13aS,14aR,16aS,Z)—N-(cyclopropylsulfonyl)-6-(4-(dimethylamino)benzamido)-2-((3-ethyl-4-oxo-3,4-dihydrophthalazin-1-yl)oxy)-7,9-dimethyl-5,16-dioxo-1,2,3,5,6,7,8,9,10,11,13a,14,14a,15,16,16a-hexadecahydrocyclopropa[e]pyrrolo[1,2-a][1,4]diazacyclopentadecine-14a-carboxamide], the EC50 in assay [1] (read-out: LE_1a (EC50, range)) was in the range of 0.00482 to 0.103 µM; in assay [2] (read-out: LE_1b (EC50, range)) it was 0.00482 to 0.103 µM.

With `CCn1nc(O[C@@H]2C[C@H]3C(=O)N[C@]4(C(=O)NS(=O)(=O)C5CC5)C[C@H]4/C=C\CC[C@H](C)C[C@@H](C)[C@H](NC(=O)C(=O)N(C)C)C(=O)N3C2)c2ccccc2c1=O` [Compound 5075, N1-((2R,6S,7R,9S,13aS,14aR,16aS,Z)-14a-((cyclopropylsulfonyl)carbamoyl)-2-((3-ethyl-4-oxo-3,4-dihydrophthalazin-1-yl)oxy)-7,9-dimethyl-5,16-dioxo-1,2,3,5,6,7,8,9,10,11,13a,14,14a,15,16,16a-hexadecahydrocyclopropa[e]pyrrolo[1,2-a][1,4]diazacyclopentadecin-6-yl)-N2,N2-dimethyloxalamide], the 50% effective concentration (EC50) in assay [1] (read-out: LE_1a (EC50)) is at least 1 µM; in assay [1] (read-out: LE_1a (EC50, range)), above 0.0874 µM; in assay [2] (read-out: LE_1b (EC50)), 1 µM; in assay [2] (read-out: LE_1b (EC50, range)), above 0.0874 µM.

In the case of `CCn1nc(O[C@@H]2C[C@H]3C(=O)N[C@]4(C(=O)NS(=O)(=O)C5CC5)C[C@H]4/C=C\CC[C@@H](C)C[C@@H](C)[C@H](NC(=O)C(=O)N(C)C)C(=O)N3C2)c2ccccc2c1=O` [Compound 5076, N1-((2R,6S,7R,9R,13aS,14aR,16aS,Z)-14a-((cyclopropylsulfonyl)carbamoyl)-2-((3-ethyl-4-oxo-3,4-dihydrophthalazin-1-yl)oxy)-7,9-dimethyl-5,16-dioxo-1,2,3,5,6,7,8,9,10,11,13a,14,14a,15,16,16a-hexadecahydrocyclopropa[e]pyrrolo[1,2-a][1,4]diazacyclopentadecin-6-yl)-N2,N2-dimethyloxalamide], the half-maximal effective concentration (EC50) in assay [1] (read-out: LE_1a (EC50, range)) is above 0.0874 µM; in assay [2] (read-out: LE_1b (EC50, range)), above 0.0874 µM.

Consider `CCn1nc(O[C@@H]2C[C@H]3C(=O)N[C@]4(C(=O)NS(=O)(=O)C5(CF)CC5)C[C@H]4/C=C\CC[C@H](C)C[C@@H](C)[C@H](NC(=O)OC(C)(C)C(F)(F)F)C(=O)N3C2)c2ccccc2c1=O` [Compound 5077], for which the EC50 fell in the range of 0.00482 to 0.103 µM in assay [1] (GETYPE1A, read-out: LE_1a (EC50, range)) and 0.00482 to 0.103 µM in assay [2] (GETYPE1B, read-out: LE_1b (EC50, range)).

Consider `CCCOc1cnc(O[C@@H]2C[C@H]3C(=O)N[C@]4(C(=O)NS(=O)(=O)C5(C)CC5)C[C@H]4/C=C\CC[C@H](C)C[C@@H](C)[C@H](NC(=O)OC(C)(C)C)C(=O)N3C2)c2ccccc12` [Compound 5078, tert-butyl ((2R,6S,7R,9S,13aS,14aR,16aS,Z)-7,9-dimethyl-14a-(((1-methylcyclopropyl)sulfonyl)carbamoyl)-5,16-dioxo-2-((4-propoxyisoquinolin-1-yl)oxy)-1,2,3,5,6,7,8,9,10,11,13a,14,14a,15,16,16a-hexadecahydrocyclopropa[e]pyrrolo[1,2-a][1,4]diazacyclopentadecin-6-yl)carbamate], for which the EC50 is 0.0289 µM in assay [1] (read-out: LE_1a (EC50)); 0.00482 to 0.103 µM in assay [1] (read-out: LE_1a (EC50, range)); 0.00873 µM in assay [2] (read-out: LE_1b (EC50)); 0.00482 to 0.103 µM in assay [2] (read-out: LE_1b (EC50, range)).

For the compound `CCCOc1cnc(O[C@@H]2C[C@H]3C(=O)N[C@]4(C(=O)NS(=O)(=O)C5(C)CC5)C[C@H]4/C=C\CC[C@@H](C)C[C@@H](C)[C@H](NC(=O)OC(C)(C)C)C(=O)N3C2)c2ccccc12` [Compound 5079, tert-butyl ((2R,6S,7R,9R,13aS,14aR,16aS,Z)-7,9-dimethyl-14a-(((1-methylcyclopropyl)sulfonyl)carbamoyl)-5,16-dioxo-2-((4-propoxyisoquinolin-1-yl)oxy)-1,2,3,5,6,7,8,9,10,11,13a,14,14a,15,16,16a-hexadecahydrocyclopropa[e]pyrrolo[1,2-a][1,4]diazacyclopentadecin-6-yl)carbamate], the EC50 was below 0.00546 µM in assay [1] (read-out: LE_1a (EC50, range)) and below 0.00546 µM in assay [2] (read-out: LE_1b (EC50, range)).

For `CCCOc1cnc(O[C@@H]2C[C@H]3C(=O)N[C@]4(C(=O)NS(=O)(=O)C5(C)CC5)C[C@H]4/C=C\CC[C@H](C)C[C@@H](C)[C@H](NC(=O)O[C@@H]4C[C@@H]5C[C@@H]5C4)C(=O)N3C2)c2ccccc12` [Compound 5080, (1R,3r,5S)-bicyclo[3.1.0]hexan-3-yl((2R,6S,7R,9S,13aS,14aR,16aS,Z)-7,9-dimethyl-14a-(((1-methylcyclopropyl)sulfonyl)carbamoyl)-5,16-dioxo-2-((4-propoxyisoquinolin-1-yl)oxy)-1,2,3,5,6,7,8,9,10,11,13a,14,14a,15,16,16a-hexadecahydrocyclopropa[e]pyrrolo[1,2-a][1,4]diazacyclopentadecin-6-yl)carbamate], the EC50 in assay [1] (read-out: LE_1a (EC50, range)) was above 0.0874 µM; in assay [2] (read-out: LE_1b (EC50, range)), 0.00482 to 0.103 µM.

Turning to `CCCOc1cnc(O[C@@H]2C[C@H]3C(=O)N[C@]4(C(=O)NS(=O)(=O)C5(C)CC5)C[C@H]4/C=C\CC[C@@H](C)C[C@@H](C)[C@H](NC(=O)O[C@@H]4C[C@@H]5C[C@@H]5C4)C(=O)N3C2)c2ccccc12` [Compound 5081, (1R,3r,5S)-bicyclo[3.1.0]hexan-3-yl((2R,6S,7R,9R,13aS,14aR,16aS,Z)-7,9-dimethyl-14a-(((1-methylcyclopropyl)sulfonyl)carbamoyl)-5,16-dioxo-2-((4-propoxyisoquinolin-1-yl)oxy)-1,2,3,5,6,7,8,9,10,11,13a,14,14a,15,16,16a-hexadecahydrocyclopropa[e]pyrrolo[1,2-a][1,4]diazacyclopentadecin-6-yl)carbamate], the concentration for a half-maximal effect (EC50) was 0.00482 to 0.103 µM in assay [1] (read-out: LE_1a (EC50, range)) and below 0.00546 µM in assay [2] (read-out: LE_1b (EC50, range)).

Consider `CCCOc1cnc(O[C@@H]2C[C@H]3C(=O)N[C@]4(C(=O)NS(=O)(=O)C5(C)CC5)C[C@H]4/C=C\CC[C@H](C)C[C@@H](C)[C@H](NC(=O)OCC4(C)CC4)C(=O)N3C2)c2ccccc12` [Compound 5082, (1-methylcyclopropyl)methyl ((2R,6S,7R,9S,13aS,14aR,16aS,Z)-7,9-dimethyl-14a-(((1-methylcyclopropyl)sulfonyl)carbamoyl)-5,16-dioxo-2-((4-propoxyisoquinolin-1-yl)oxy)-1,2,3,5,6,7,8,9,10,11,13a,14,14a,15,16,16a-hexadecahydrocyclopropa[e]pyrrolo[1,2-a][1,4]diazacyclopentadecin-6-yl)carbamate], for which the EC50 is 0.198 µM in assay [1] (read-out: LE_1a (EC50)); above 0.0874 µM in assay [1] (read-out: LE_1a (EC50, range)); 0.0455 µM in assay [2] (read-out: LE_1b (EC50)); 0.00482 to 0.103 µM in assay [2] (read-out: LE_1b (EC50, range)).

For `CCCOc1cnc(O[C@@H]2C[C@H]3C(=O)N[C@]4(C(=O)NS(=O)(=O)C5(C)CC5)C[C@H]4/C=C\CC[C@@H](C)C[C@@H](C)[C@H](NC(=O)OCC4(C)CC4)C(=O)N3C2)c2ccccc12` [Compound 5083, (1-methylcyclopropyl)methyl ((2R,6S,7R,9R,13aS,14aR,16aS,Z)-7,9-dimethyl-14a-(((1-methylcyclopropyl)sulfonyl)carbamoyl)-5,16-dioxo-2-((4-propoxyisoquinolin-1-yl)oxy)-1,2,3,5,6,7,8,9,10,11,13a,14,14a,15,16,16a-hexadecahydrocyclopropa[e]pyrrolo[1,2-a][1,4]diazacyclopentadecin-6-yl)carbamate], the concentration for a half-maximal effect (EC50) in assay [1] (read-out: LE_1a (EC50, range)) was below 0.00546 µM; in assay [2] (read-out: LE_1b (EC50, range)) it was below 0.00546 µM.

As to `CCCOc1cnc(O[C@@H]2C[C@H]3C(=O)N[C@]4(C(=O)NS(=O)(=O)C5(C)CC5)C[C@H]4/C=C\CC[C@H](C)C[C@@H](C)[C@H](NC(=O)O[C@H](C)C(F)(F)F)C(=O)N3C2)c2ccccc12` [Compound 5084, (R)-1,1,1-trifluoropropan-2-yl ((2R,6S,7R,9S,13aS,14aR,16aS,Z)-7,9-dimethyl-14a-(((1-methylcyclopropyl)sulfonyl)carbamoyl)-5,16-dioxo-2-((4-propoxyisoquinolin-1-yl)oxy)-1,2,3,5,6,7,8,9,10,11,13a,14,14a,15,16,16a-hexadecahydrocyclopropa[e]pyrrolo[1,2-a][1,4]diazacyclopentadecin-6-yl)carbamate], the EC50 in assay [1] (read-out: LE_1a (EC50)) is 0.52 µM; in assay [1] (read-out: LE_1a (EC50, range)) it was above 0.0874 µM; in assay [2] (read-out: LE_1b (EC50)) it was 0.131 µM; in assay [2] (read-out: LE_1b (EC50, range)) it was above 0.0874 µM.
